Results: patent US20200245616A1, “A Disinfectant Composition with Extended Antimicrobial Effects” (Siamons International Inc., priority 2017, published 2020)

System: Trichophyton mentagrophytes ATCC 9533
Assay: AOAC Official Method 961.02 Germicidal Spray Method, fungal conidia on glass carriers
Type: cell-based
Conditions: CMC + QAH, QAH 0.010%; 10 min contact
Excerpt: (§1) In this method, a series of glass slides (“carriers”) were inoculated with a representative test organism and the carriers were dried under ambient conditions. The dried organisms on the surface of the carrier were then sequentially treated with the composition of the present disclosure in the form of a spray product and were exposed for a pre-determined exposure time. After exposure, the carriers were sequentially transferred to a liquid subculture medium specifically selected to neutralize the composition of the present disclosure and to recover any surviving test organism. The carriers were incubated and visually examined for the presence or absence of growth. […] Required organisms for a disinfection claim include but are not limited to Staphylococcus aureus, Salmonella choleraesuis and Pseudomonas aeruginosa.
(§2) The conidiospore suspension was macerated in a tissue grinder. The suspension was filtered through sterile cotton to remove the hyphae and hyphal fragments.
(§3) Vortex-mixed the inoculum periodically during inoculation of the carriers. • Immediately spread the inoculum uniformly over the majority of the carrier surface using a sterile loop. […] High volume screening studies were conducted in some cases where only 4 organism-inoculated carriers were treated at specified concentrations of CTAB. Once all of the carriers had been inoculated, the carriers were placed in an incubator at 37° C. for 40 minutes until completely dry.
(§4) • After drying, each carrier was sprayed with the respective disinfection formulae 10 times in 10 seconds at a distance of 30 cm. • Timed the treatment interval. Ten (10) minutes after each carrier had been exposed to the disinfectant, the excess liquid was removed and the carriers were transferred in a sequentially timed fashion into the culture tubes containing 20 ml neutralization broth (Letheen Broth with 0.07% Lecithin /0.5% Tween 80) to neutralize the disinfectant. • After the carriers were deposited in the respective culture tubes, the tubes were recapped and the cultures were thoroughly resuspended. • Incubated all neutralization tubes at 28 ±1° C. for 14 days. • After 14 days, the cultures within the tubes were examined for growth. The percentage of the treated carriers showing growth was recorded.

| Structure (SMILES) | Trichophyton mentagrophytes Growth Rate |
| --- | --- |
| CCCCCCCCCCCCCCCCCC[N+](C)(C)C.[Cl-] [TMSAC, Trimethylstearylammonium chloride] | 0% |

Same assay, conditions: CMC + QAH, QAH 0.100%; 10 min contact

| Structure (SMILES) | Trichophyton mentagrophytes Growth Rate |
| --- | --- |
| CCCCCCCCCCCCCCCCCC[N+](C)(C)C.[Cl-] [TMSAC, Trimethylstearylammonium chloride] | 0% |

Same assay, conditions: CMC + QAH, QAH 1.000%; 10 min contact

| Structure (SMILES) | Trichophyton mentagrophytes Growth Rate |
| --- | --- |
| CCCCCCCCCCCCCCCCCC[N+](C)(C)C.[Cl-] [TMSAC, Trimethylstearylammonium chloride] | 0% |

Same assay, conditions: Water + QAH, QAH 0.010%; 10 min contact

| Structure (SMILES) | Trichophyton mentagrophytes Growth Rate |
| --- | --- |
| CCCCCCCCCCCCCCCCCC[N+](C)(C)C.[Cl-] [TMSAC, Trimethylstearylammonium chloride] | 0% |

Same assay, conditions: Water + QAH, QAH 0.100%; 10 min contact

| Structure (SMILES) | Trichophyton mentagrophytes Growth Rate |
| --- | --- |
| CCCCCCCCCCCCCCCCCC[N+](C)(C)C.[Cl-] [TMSAC, Trimethylstearylammonium chloride] | 0% |

Same assay, conditions: Water + QAH, QAH 1.000%; 10 min contact

| Structure (SMILES) | Trichophyton mentagrophytes Growth Rate |
| --- | --- |
| CCCCCCCCCCCCCCCCCC[N+](C)(C)C.[Cl-] [TMSAC, Trimethylstearylammonium chloride] | 0% |

System: Penicillium variable ATCC 32333
Assay: as above
Type: cell-based
Conditions: CMC + QAH, QAH 0.010%; 10 min contact
Excerpt: as §1, §2, §3, §4

| Structure (SMILES) | Penicillium variable Growth Rate |
| --- | --- |
| CCCCCCCCCCCCCCCCCC[N+](C)(C)C.[Cl-] [TMSAC, Trimethylstearylammonium chloride] | 0% |

Same assay, conditions: CMC + QAH, QAH 0.100%; 10 min contact

| Structure (SMILES) | Penicillium variable Growth Rate |
| --- | --- |
| CCCCCCCCCCCCCCCCCC[N+](C)(C)C.[Cl-] [TMSAC, Trimethylstearylammonium chloride] | 0% |

Same assay, conditions: CMC + QAH, QAH 1.000%; 10 min contact

| Structure (SMILES) | Penicillium variable Growth Rate |
| --- | --- |
| CCCCCCCCCCCCCCCCCC[N+](C)(C)C.[Cl-] [TMSAC, Trimethylstearylammonium chloride] | 0% |

Same assay, conditions: Water + QAH, QAH 0.010%; 10 min contact

| Structure (SMILES) | Penicillium variable Growth Rate |
| --- | --- |
| CCCCCCCCCCCCCCCCCC[N+](C)(C)C.[Cl-] [TMSAC, Trimethylstearylammonium chloride] | 0% |

Same assay, conditions: Water + QAH, QAH 0.100%; 10 min contact

| Structure (SMILES) | Penicillium variable Growth Rate |
| --- | --- |
| CCCCCCCCCCCCCCCCCC[N+](C)(C)C.[Cl-] [TMSAC, Trimethylstearylammonium chloride] | 0% |

Same assay, conditions: Water + QAH, QAH 1.000%; 10 min contact

| Structure (SMILES) | Penicillium variable Growth Rate |
| --- | --- |
| CCCCCCCCCCCCCCCCCC[N+](C)(C)C.[Cl-] [TMSAC, Trimethylstearylammonium chloride] | 0% |

System: Pseudomonas aeruginosa ATCC 15442
Assay: AOAC Official Method 961.02 Germicidal Spray Method, bacteria on glass carriers
Type: cell-based
Conditions: CMC + QAH, QAH 0.010%; 10 min contact
Excerpt: as §1
(§5) Method Adapted to the Preparation of Bacteria Cultures from −80° C. Freshly Recovered Stock. […] Added 10 μL of the thawed stock to a tube containing 10 mL synthetic broth and then vortexed to mix. Discarded the rest of cryovial stock. • Incubated the tube at 36 ±1° C. for 24 hours (h). Briefly vortexed the 24 h culture prior to transfer. For this final subculture step, inoculated two 20×150 mm tubes containing 10 mL synthetic broth with […] of the 24 h synthetic broth culture. • Incubated 48 h at 36±1° C. Using a Vortex-style mixer, mixed synthetic broth test cultures 3-4 seconds and let stand 10 minutes at room temperature before continuing. Removed the upper portion of each culture, leaving behind any debris or clumps, and transferred to a sterile tube. Titrated the culture by plating on synthetic agar plates, and diluted to 5×10^8 Colony Forming Units (CFU) per mL.
(§6) High volume screening studies were conducted in some cases where only 4 organism-inoculated carriers were treated at specified concentrations of CTAB. Vortex-mixed the inoculum periodically during inoculation of the carriers. • Immediately spread the inoculum uniformly over the majority of the carrier surface using a sterile loop. […] Covered dish immediately and repeated operation until 64 carriers had been prepared for the test. Once all of the carriers had been inoculated, placed in incubator at 37° C. for 40 minutes until dry.
(§7) • After the test organisms were dried on the surface of the carrier, each carrier was sprayed with the respective disinfection formulae 10 times in 10 seconds at a distance of 30 cm. • Treatment interval was timed. Ten (10) minutes after each carrier had been sprayed by the disinfectant, the excess liquid was removed and the carriers were transferred in a sequentially timed fashion into the culture tubes containing 20 ml neutralizer (Letheen Broth with 0.07% Lecithin/0.5% Tween 80/0.1% Sodium Thiosulfate) to neutralize the disinfectant. […] The percentage of the treated carriers showing growth after 48 hours was recorded.

| Structure (SMILES) | Pseudomonas aeruginosa Growth Rate |
| --- | --- |
| CCCCCCCCCCCCCCCCCC[N+](C)(C)C.[Cl-] [TMSAC, Trimethylstearylammonium chloride] | 0% |

Same assay, conditions: CMC + QAH, QAH 0.100%; 10 min contact

| Structure (SMILES) | Pseudomonas aeruginosa Growth Rate |
| --- | --- |
| CCCCCCCCCCCCCCCCCC[N+](C)(C)C.[Cl-] [TMSAC, Trimethylstearylammonium chloride] | 0% |

Same assay, conditions: CMC + QAH, QAH 1.000%; 10 min contact

| Structure (SMILES) | Pseudomonas aeruginosa Growth Rate |
| --- | --- |
| CCCCCCCCCCCCCCCCCC[N+](C)(C)C.[Cl-] [TMSAC, Trimethylstearylammonium chloride] | 0% |

Same assay, conditions: Water + QAH, QAH 0.010%; 10 min contact

| Structure (SMILES) | Pseudomonas aeruginosa Growth Rate |
| --- | --- |
| CCCCCCCCCCCCCCCCCC[N+](C)(C)C.[Cl-] [TMSAC, Trimethylstearylammonium chloride] | 100% |

Same assay, conditions: Water + QAH, QAH 0.100%; 10 min contact

| Structure (SMILES) | Pseudomonas aeruginosa Growth Rate |
| --- | --- |
| CCCCCCCCCCCCCCCCCC[N+](C)(C)C.[Cl-] [TMSAC, Trimethylstearylammonium chloride] | 50% |

Same assay, conditions: Water + QAH, QAH 1.000%; 10 min contact

| Structure (SMILES) | Pseudomonas aeruginosa Growth Rate |
| --- | --- |
| CCCCCCCCCCCCCCCCCC[N+](C)(C)C.[Cl-] [TMSAC, Trimethylstearylammonium chloride] | 0% |

System: Staphylococcus aureus ATCC 6538
Assay: as above
Type: cell-based
Conditions: CMC + QAH, QAH 0.010%; 10 min contact
Excerpt: as §1, §5, §6, §7

| Structure (SMILES) | Staphylococcus aureus Growth Rate |
| --- | --- |
| CCCCCCCCCCCCCCCCCC[N+](C)(C)C.[Cl-] [TMSAC, Trimethylstearylammonium chloride] | 0% |

Same assay, conditions: CMC + QAH, QAH 0.100%; 10 min contact

| Structure (SMILES) | Staphylococcus aureus Growth Rate |
| --- | --- |
| CCCCCCCCCCCCCCCCCC[N+](C)(C)C.[Cl-] [TMSAC, Trimethylstearylammonium chloride] | 0% |

Same assay, conditions: CMC + QAH, QAH 1.000%; 10 min contact

| Structure (SMILES) | Staphylococcus aureus Growth Rate |
| --- | --- |
| CCCCCCCCCCCCCCCCCC[N+](C)(C)C.[Cl-] [TMSAC, Trimethylstearylammonium chloride] | 0% |

Same assay, conditions: Water + QAH, QAH 0.010%; 10 min contact

| Structure (SMILES) | Staphylococcus aureus Growth Rate |
| --- | --- |
| CCCCCCCCCCCCCCCCCC[N+](C)(C)C.[Cl-] [TMSAC, Trimethylstearylammonium chloride] | 100% |

Same assay, conditions: Water + QAH, QAH 0.100%; 10 min contact

| Structure (SMILES) | Staphylococcus aureus Growth Rate |
| --- | --- |
| CCCCCCCCCCCCCCCCCC[N+](C)(C)C.[Cl-] [TMSAC, Trimethylstearylammonium chloride] | 100% |

Same assay, conditions: Water + QAH, QAH 1.000%; 10 min contact

| Structure (SMILES) | Staphylococcus aureus Growth Rate |
| --- | --- |
| CCCCCCCCCCCCCCCCCC[N+](C)(C)C.[Cl-] [TMSAC, Trimethylstearylammonium chloride] | 50% |

System: select bacteria and fungal organisms
Assay: Germicidal spray disinfection, summary over the tested organisms
Type: cell-based
Conditions: 0.01% QAH in CMC; 10-minute contact time
Procedure: All experiments were conducted according to the protocol outlined in AOAC Official Method 961.02 (Germicidal Spray Method), which is a carrier-based method used to evaluate disinfection efficacy of aerosol/pump-based spray products and liquid products for registration with regulatory agencies such as the U.S. EPA and Health Canada.
It was expected that if the CTAB was replaced by QAH's of similar structure that the disinfection of selected bacteria and fungal organisms would be similarly achieved. […] In the case of bacteria testing, the experimental procedure was as outlined in Example 1 for disinfection of bacterial cultures. In the case of fungal organisms, the experimental procedure was as outlined in Example 1 for the preparation of fungal cultures.

| Structure (SMILES) | effectiveness against the target organisms |
| --- | --- |
| CCCCCCCCCCCCCCCCCC[N+](C)(C)C.[Cl-] [TMSAC, Trimethylstearylammonium chloride] | remarkable effectiveness |
